Inconclusive results and toxic doses are left out. No stated cut-off is given here; in the data, active means T/C of 150% or more; inactive means T/C below 125%.
Test system: L1210 leukemia ip in BDF1 mice, survival T/C
Experiment: NCI In Vivo Anticancer Drug Screen. Data for tumor model L1210 Leukemia (intraperitoneal) in B6D2F1 (BDF1) mice
Conditions: endpoint: mean survival time, higher = longer survival
Summary of the method: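 Transplantable tumor model; survival measured in treated vs vehicle control mice. Value = treated/control.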

[1] = dose: 100.0 mg/kg/injection, schedule: Q04DX003 (ip), vehicle: saline with Tween-80
[2] = dose: 200.0 mg/kg/injection, schedule: Q04DX003 (ip), vehicle: saline with Tween-80
[3] = dose: 400.0 mg/kg/injection, schedule: Q04DX003 (ip), vehicle: saline with Tween-80
[4] = dose: 100.0 mg/kg/injection, schedule: Q01DX009 (ip), vehicle: saline with Tween-80
[5] = dose: 400.0 mg/kg/injection, schedule: Q01DX009 (ip), vehicle: saline with Tween-80
[6] = dose: 100.0 mg/kg/injection, schedule: Q04DX003 (ip), vehicle: Klucel (hydroxypropylcellulose) (HPC)
[7] = dose: 200.0 mg/kg/injection, schedule: Q04DX003 (ip), vehicle: Klucel (hydroxypropylcellulose) (HPC)
[8] = dose: 400.0 mg/kg/injection, schedule: Q04DX003 (ip), vehicle: Klucel (hydroxypropylcellulose) (HPC)
[9] = dose: 100.0 mg/kg/injection, schedule: Q01DX009 (ip), vehicle: Klucel (hydroxypropylcellulose) (HPC)
[10] = dose: 200.0 mg/kg/injection, schedule: Q01DX009 (ip), vehicle: Klucel (hydroxypropylcellulose) (HPC)
[11] = dose: 400.0 mg/kg/injection, schedule: Q01DX009 (ip), vehicle: Klucel (hydroxypropylcellulose) (HPC)
[12] = dose: 100.0 mg/kg/injection, schedule: Q01DX009 (ip), vehicle: saline
[13] = dose: 100.0 mg/kg/injection, schedule: Q04DX003 (ip), vehicle: saline
[14] = dose: 200.0 mg/kg/injection, schedule: Q01DX009 (ip), vehicle: saline
[15] = dose: 200.0 mg/kg/injection, schedule: Q04DX003 (ip), vehicle: saline
[16] = dose: 100.0 mg/kg/injection, schedule: Q01DX001 (ip), vehicle: saline
[17] = dose: 200.0 mg/kg/injection, schedule: Q01DX001 (ip), vehicle: saline
[18] = dose: 400.0 mg/kg/injection, schedule: Q01DX001 (ip), vehicle: saline

Measured: T/C

O=Cc1ccc2c(c1)C(=O)c1ccccc1C2=O
inactive: dose: 100.0 mg/kg/injection, schedule: Q04DX002 (ip), vehicle: Klucel (hydroxypropylcellulose) (HPC) 90 % of control | dose: 200.0 mg/kg/injection, schedule: Q04DX002 (ip), vehicle: Klucel (hydroxypropylcellulose) (HPC) 97 % of control | dose: 400.0 mg/kg/injection, schedule: Q04DX002 (ip), vehicle: Klucel (hydroxypropylcellulose) (HPC) 93 % of control

COc1cc2ccnc(C(OC(=O)c3ccccc3)c3ccc(OCc4ccccc4)cc3)c2cc1OC (stereo unspecified)
inactive: [1] 95 % of control | [2] 88 % of control | [3] 95 % of control

CC1(C)COC(c2ccccc2)=N1
inactive: [4] 105 % of control | dose: 100.0 mg/kg/injection, schedule: Q04DX003 (ip), vehicle: saline sonified 93 % of control | dose: 200.0 mg/kg/injection, schedule: Q01DX009 (ip), vehicle: saline with Tween-80 103 % of control | dose: 200.0 mg/kg/injection, schedule: Q04DX003 (ip), vehicle: saline sonified 87 % of control | [5] 102 % of control | dose: 400.0 mg/kg/injection, schedule: Q04DX003 (ip), vehicle: saline sonified 90 % of control

CSc1cc(C(=O)O)nc(SC)n1
inactive: dose: 100.0 mg/kg/injection, schedule: Q01DX Z (ip), vehicle: methylcellulose (MC) 97 % of control

O=S(Cc1ccc(Cl)cc1)c1ccc(Cl)cc1 (stereo unspecified)
inactive: [6] 97 % of control | [7] 90 % of control | [8] 104 % of control

CSc1ccc(C(O)Cc2ccc([N+](=O)[O-])cc2)cc1 (stereo unspecified)
inactive: [9] 96 % of control | [6] 94 % of control | [10] 97 % of control | [7] 96 % of control | [11] 100 % of control | [8] 98 % of control

c1ccc([Si]([O][Sn]([c]2ccccc2)([c]2ccccc2)[c]2ccccc2)(c2ccccc2)c2ccccc2)cc1
inactive: dose: 25.6 mg/kg/injection, schedule: Q04DX002 (ip), vehicle: saline with Tween-80 89 % of control | dose: 64.0 mg/kg/injection, schedule: Q04DX002 (ip), vehicle: saline with Tween-80 93 % of control | dose: 160.0 mg/kg/injection, schedule: Q04DX002 (ip), vehicle: saline with Tween-80 93 % of control | dose: 400.0 mg/kg/injection, schedule: Q04DX002 (ip), vehicle: saline with Tween-80 89 % of control

CN1CCC(OC(N)=O)CC1
inactive: [12] 99 % of control | [13] 103 % of control | [14] 104 % of control | [15] 103 % of control | dose: 400.0 mg/kg/injection, schedule: Q01DX009 (ip), vehicle: saline 96 % of control | dose: 400.0 mg/kg/injection, schedule: Q04DX003 (ip), vehicle: saline 101 % of control

CCC[CH2][Hg][Cl]
inactive: dose: 6.25 mg/kg/injection, schedule: Q01DX009 (ip), vehicle: saline with Tween-80 94 % of control | dose: 6.25 mg/kg/injection, schedule: Q04DX003 (ip), vehicle: Klucel (hydroxypropylcellulose) (HPC) 93 % of control | dose: 12.5 mg/kg/injection, schedule: Q01DX009 (ip), vehicle: saline with Tween-80 92 % of control | dose: 12.5 mg/kg/injection, schedule: Q04DX003 (ip), vehicle: Klucel (hydroxypropylcellulose) (HPC) 92 % of control | dose: 25.0 mg/kg/injection, schedule: Q04DX003 (ip), vehicle: Klucel (hydroxypropylcellulose) (HPC) 88 % of control

CC12CCC(CC1Cl)C2 (stereo unspecified)
inactive: dose: 50.0 mg/kg/injection, schedule: Q01DX001 (ip), vehicle: carboxymethylcellulose (CMC) 93 % of control | dose: 100.0 mg/kg/injection, schedule: Q01DX001 (ip), vehicle: carboxymethylcellulose (CMC) 91 % of control | dose: 200.0 mg/kg/injection, schedule: Q01DX001 (ip), vehicle: carboxymethylcellulose (CMC) 91 % of control | dose: 400.0 mg/kg/injection, schedule: Q01DX001 (ip), vehicle: carboxymethylcellulose (CMC) 96 % of control

CC1CCN(C(=O)NCCCCCCNC(=O)N2CCC(C)CC2)CC1
inactive: [9] 100 % of control | [10] 97 % of control | [11] 90 % of control

Cc1c2oc3c(C)ccc(C(=O)OCCN4CCCCC4)c3nc-2c(C(=O)OCCN2CCCCC2)c(N)c1=O
inactive: dose: 100.0 mg/kg/injection, schedule: Q04DX002 (ip), vehicle: saline with Tween-80 113 % of control | dose: 200.0 mg/kg/injection, schedule: Q04DX002 (ip), vehicle: saline with Tween-80 98 % of control

CCOC(=O)c1ccc(N(CC2CO2)S(=O)(=O)c2ccc(C)cc2)cc1 (stereo unspecified)
inactive: [1] 105 % of control | [2] 90 % of control | [3] 92 % of control

CC1CC[N+]2(C)CCCC12 (stereo unspecified)
inactive: dose: 6.25 mg/kg/injection, schedule: Q01DX009 (ip), vehicle: saline 100 % of control | dose: 12.5 mg/kg/injection, schedule: Q01DX009 (ip), vehicle: saline 100 % of control

c1ccc(Oc2ccc(-c3ccc(Oc4ccccc4)cc3)cc2)cc1
inactive: [4] 91 % of control | [5] 91 % of control

CCCOC(CN)C(Cl)(Cl)Cl (stereo unspecified)
inactive: dose: 50.0 mg/kg/injection, schedule: Q01DX009 (ip), vehicle: saline 98 % of control | [12] 96 % of control | [13] 97 % of control | [14] 96 % of control | [15] 92 % of control

CC(NCl)c1ccccc1 (stereo unspecified)
inactive: [16] 95 % of control | [17] 100 % of control | [18] 100 % of control

CCCCCCCCCCCCCCNC(=O)Nc1ccc(Cl)c(Cl)c1
inactive: [16] 95 % of control | [17] 92 % of control | [18] 95 % of control

OCCCCCn1cnc2c(=S)nc[nH]c21
inactive: [9] 101 % of control | [6] 93 % of control | [10] 101 % of control | [7] 98 % of control | [11] 102 % of control | [8] 95 % of control

O=C1c2ccccc2C(=O)c2c(O)c3c(c(O)c21)CCCC3OC1OC(CO)C(O)C(O)C1O (stereo unspecified)
inactive: [18] 91 % of control

Reference: PubChem BioAssay AID248 (DTP/NCI, 2004)
